Reference: PubChem BioAssay AID330 (DTP/NCI, 2004)
Values joined by “and” are separate entries in the source; they are usually repeats but may differ in a detail not shown here. Identical values can stand only once. Toxic doses and inconclusive results are not listed. The calls were made as follows: active = survival T/C of 150% or more; inactive = T/C below 125% in these data. Square brackets hold non-standard residues; d marks the D form. Peptide text beside a SMILES is read from it. * marks the point of attachment. ξ: configuration not given here. Cbz = O=C(OCc1ccccc1)*; Bn = c1ccc(C*)cc1; ξC = NC(CS)C(=O)O; βAla = NCCC(=O)O

System: P388 leukemia ip, CD2F1 mice, survival T/C
Test: NCI In Vivo Anticancer Drug Screen. Data for tumor model P388 Leukemia (intraperitoneal) in CD2F1 (CDF1) mice
Settings: endpoint: median survival time, higher = longer survival
In short: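 Mice carrying the transplanted tumor received test compound or vehicle. Survival was recorded in each group, and the value is the treated-group measurement divided by that of the vehicle-treated control group.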

[1] = dose: 50.0 mg/kg/injection, schedule: Q01DX009 (ip), vehicle: saline
[2] = dose: 100.0 mg/kg/injection, schedule: Q01DX009 (ip), vehicle: saline
[3] = dose: 200.0 mg/kg/injection, schedule: Q01DX009 (ip), vehicle: saline
[4] = dose: 50.0 mg/kg/injection, schedule: Q01DX005 (ip), vehicle: saline with Tween-80
[5] = dose: 100.0 mg/kg/injection, schedule: Q01DX005 (ip), vehicle: saline with Tween-80
[6] = dose: 200.0 mg/kg/injection, schedule: Q01DX005 (ip), vehicle: saline with Tween-80
[7] = dose: 6.25 mg/kg/injection, schedule: Q01DX009 (ip), vehicle: saline
[8] = dose: 12.5 mg/kg/injection, schedule: Q01DX009 (ip), vehicle: saline
[9] = dose: 60.0 mg/kg/injection, schedule: Q01DX005 (ip), vehicle: saline with Tween-80
[10] = dose: 120.0 mg/kg/injection, schedule: Q01DX005 (ip), vehicle: saline with Tween-80
[11] = dose: 240.0 mg/kg/injection, schedule: Q01DX005 (ip), vehicle: saline with Tween-80
[12] = dose: 50.0 mg/kg/injection, schedule: Q01DX009 (ip), vehicle: Klucel (hydroxypropylcellulose) (HPC)
[13] = dose: 100.0 mg/kg/injection, schedule: Q01DX009 (ip), vehicle: Klucel (hydroxypropylcellulose) (HPC)
[14] = dose: 50.0 mg/kg/injection, schedule: Q01DX005 (ip), vehicle: Klucel (hydroxypropylcellulose) (HPC)
[15] = dose: 100.0 mg/kg/injection, schedule: Q01DX005 (ip), vehicle: Klucel (hydroxypropylcellulose) (HPC)
[16] = dose: 200.0 mg/kg/injection, schedule: Q01DX005 (ip), vehicle: Klucel (hydroxypropylcellulose) (HPC)
[17] = dose: 100.0 mg/kg/injection, schedule: Q04DX003 (ip), vehicle: saline with Tween-80
[18] = dose: 200.0 mg/kg/injection, schedule: Q04DX003 (ip), vehicle: saline with Tween-80

Measured: T/C

CC(=O)C1(c2ccccc2)CCN(c2c3ccccc3nc3ccccc23)CC1
inactive: dose: 100.0 mg/kg/injection, schedule: Q04DX003 (ip), vehicle: Klucel (hydroxypropylcellulose) (HPC) 108 % of control | dose: 200.0 mg/kg/injection, schedule: Q04DX003 (ip), vehicle: Klucel (hydroxypropylcellulose) (HPC) 111 % of control

ClCc1nnn(Cc2ccccc2)c1CCl
inactive: [1] 102 % of control | [2] 89 % of control | [3] 92 % of control

O=C(O)CNC(=O)CNC(=O)CCNC(=O)OCc1ccccc1 ({Cbz-βAla}-Gly-Gly-OH)
inactive: [4] 101 % of control | [5] 97 % of control | [6] 108 % of control

O=C1C(CCl)=CS(=O)(=O)c2ccccc21
inactive: [7] 109 % of control | [8] 116 % of control | dose: 25.0 mg/kg/injection, schedule: Q01DX009 (ip), vehicle: saline 100 % of control

Clc1cccc(C(Nc2nncs2)Nc2nncs2)c1Cl
inactive: [9] 89 % of control | [10] 100 % of control | [11] 96 % of control

CC(=O)OC1C=CN(C(C)=O)C(SC(C)(C)C)C1(C)O (stereo not drawn)
inactive: [12] 101 % of control and 119 % of control | [13] 107 % of control and 112 % of control | dose: 200.0 mg/kg/injection, schedule: Q01DX009 (ip), vehicle: Klucel (hydroxypropylcellulose) (HPC) 113 % of control and 120 % of control | dose: 400.0 mg/kg/injection, schedule: Q01DX009 (ip), vehicle: Klucel (hydroxypropylcellulose) (HPC) 110 % of control

O=C(CNC(=O)OCc1ccccc1)NCC(=O)NC(CSCc1ccccc1)C(=O)O (stereo not drawn) (Cbz-Gly-Gly-[ξC](Bn)-OH)
inactive: [14] 101 % of control | [15] 100 % of control | [16] 100 % of control

NC(C(=O)O)C(CC(=O)O)c1ccc(O)cc1 (stereo not drawn)
inactive: dose: 50.0 mg/kg/injection, schedule: Q01DX007 (ip), vehicle: saline 100 % of control | dose: 100.0 mg/kg/injection, schedule: Q01DX007 (ip), vehicle: saline 100 % of control | dose: 200.0 mg/kg/injection, schedule: Q01DX007 (ip), vehicle: saline 101 % of control

CN(C)NP(=O)(NN(C)C)c1ccccc1
inactive: dose: 60.0 mg/kg/injection, schedule: Q01DX005 (ip), vehicle: saline 100 % of control | dose: 120.0 mg/kg/injection, schedule: Q01DX005 (ip), vehicle: saline 103 % of control | dose: 240.0 mg/kg/injection, schedule: Q01DX005 (ip), vehicle: saline 109 % of control

CN(c1ccccc1)c1c(Cl)c(=O)oc2c1ccc1nc(-c3ccccc3)sc12
inactive: [4] 86 % of control | [5] 90 % of control | [6] 86 % of control

C=CC(c1ccccc1)c1cc2c(cc1OCC)OCO2 (stereo not drawn)
inactive: [14] 105 % of control | [15] 100 % of control | [16] 94 % of control

Oc1cc(O)cc(/C=C/c2ccc(O)cc2O)c1
inactive: dose: 2.0 mg/kg/injection, schedule: Q01DX009 (ip), vehicle: Klucel (hydroxypropylcellulose) (HPC) 102 % of control | dose: 4.0 mg/kg/injection, schedule: Q01DX009 (ip), vehicle: Klucel (hydroxypropylcellulose) (HPC) 105 % of control | dose: 8.0 mg/kg/injection, schedule: Q01DX009 (ip), vehicle: Klucel (hydroxypropylcellulose) (HPC) 101 % of control | dose: 16.0 mg/kg/injection, schedule: Q01DX009 (ip), vehicle: Klucel (hydroxypropylcellulose) (HPC) 94 % of control | dose: 32.0 mg/kg/injection, schedule: Q01DX009 (ip), vehicle: Klucel (hydroxypropylcellulose) (HPC) 101 % of control

CN(C)c1ccc2c(c1)Cc1cc(N=C3C=CC(=O)O3)ccc1-2
inactive: dose: 50.0 mg/kg/injection, schedule: Q01DX009 (ip), vehicle: saline with Tween-80 100 % of control | dose: 100.0 mg/kg/injection, schedule: Q01DX009 (ip), vehicle: saline with Tween-80 100 % of control | [17] 109 % of control | dose: 200.0 mg/kg/injection, schedule: Q01DX009 (ip), vehicle: saline with Tween-80 100 % of control | [18] 95 % of control

CC(=O)OC(CO)C(OC(C)=O)C(CNc1nc(N)[nH]c(=O)c1[N+](=O)[O-])OC(C)=O (stereo not drawn)
inactive: [9] 101 % of control | [10] 92 % of control | [11] 92 % of control

CCC[C@H]1N=C(OCC)N[C@@H]1CCC
inactive: dose: 6.25 mg/kg/injection, schedule: Q01DX005 (ip), vehicle: Klucel (hydroxypropylcellulose) (HPC) 108 % of control | dose: 12.5 mg/kg/injection, schedule: Q01DX005 (ip), vehicle: Klucel (hydroxypropylcellulose) (HPC) 117 % of control

O=C(OCCN1C(=O)C2C3C=CC(C3)C2C1=O)C1C2C=CC(C2)C1C(=O)OCCN1C(=O)C2C3C=CC(C3)C2C1=O (stereo not drawn)
inactive: dose: 50.0 mg/kg/injection, schedule: Q01DX005 (ip), vehicle: saline + Tween-80 + alcohol 100 % of control | dose: 100.0 mg/kg/injection, schedule: Q01DX005 (ip), vehicle: saline + Tween-80 + alcohol 105 % of control | dose: 200.0 mg/kg/injection, schedule: Q01DX005 (ip), vehicle: saline + Tween-80 + alcohol 105 % of control

CCC(C)C(NC(=O)C(C)NC(=O)OCc1ccccc1)C(=O)O (stereo not drawn)
inactive: [4] 101 % of control | [5] 101 % of control | [6] 100 % of control

Nc1ccc2ncccc2c1[N+](=O)[O-]
inactive: [17] 95 % of control | [18] 94 % of control

CC(C)(C)C(=O)CC(O)(C(F)(F)Cl)C(F)(F)Cl
inactive: dose: 50.0 mg/kg/injection, schedule: Q04DX003 (ip), vehicle: saline with Tween-80 90 % of control | [17] 95 % of control | [18] 105 % of control

NC(C(=O)O)C(F)C(=O)O (stereo not drawn)
inactive: dose: 10.0 mg/kg/injection, schedule: Q01DX009 (ip), vehicle: saline 109 % of control | dose: 20.0 mg/kg/injection, schedule: Q01DX009 (ip), vehicle: saline 106 % of control | dose: 40.0 mg/kg/injection, schedule: Q01DX009 (ip), vehicle: saline 100 % of control

Cc1ccc(S(=O)(=O)NC(=O)NC2=NC(C)(C)N(c3ccc(Cl)c(Cl)c3)C(N)=N2)cc1
inactive: [9] 105 % of control | [10] 108 % of control | [11] 114 % of control

CCC[CH2][Sn]([CH2]CCC)([CH2]CCC)[CH2]CC[N+](C)(CCO)CCO.CS(=O)(=O)[O-]
inactive: dose: 3.12 mg/kg/injection, schedule: Q01DX009 (ip), vehicle: saline 87 % of control | [7] 91 % of control | [8] 97 % of control | [1] 86 % of control | [2] 95 % of control | [3] 98 % of control

COc1cc(C2OC(=O)c3ccccc3S2)ccc1O (stereo not drawn)
inactive: dose: 6.25 mg/kg/injection, schedule: Q01DX009 (ip), vehicle: Klucel (hydroxypropylcellulose) (HPC) 114 % of control | dose: 12.5 mg/kg/injection, schedule: Q01DX009 (ip), vehicle: Klucel (hydroxypropylcellulose) (HPC) 110 % of control and 119 % of control | dose: 25.0 mg/kg/injection, schedule: Q01DX009 (ip), vehicle: Klucel (hydroxypropylcellulose) (HPC) 114 % of control and 120 % of control | [12] 106 % of control | [13] 118 % of control

CC12CC(C(=O)O)C3(O)CC(C)(C1)CC(C)(C2)C3 (stereo not drawn) (tested in a mixture with another compound)
inactive: [12] 109 % of control | [13] 118 % of control
